According to publication PMC8515607 (ACS Omega, 2021):
Several values for one entry are separate records, joined by “and”; a condition that tells them apart may be missing. Identical values can stand only once. Like-named read-outs stand apart in the source and are kept apart here.

What was measured:
[1] = test system: A549, MCF-7, and LoVo cells; experiment: Antiproliferative activity, values quoted jointly for three tumor lines; type: cell-based, human; details: Homo sapiens; summary of Table 1; read-out: IC50 against A549, MCF-7, and LoVo cells (span over the three lines)
Text: (§1) The A549 and MCF7 cell lines were purchased from the European Collection of Authenticated Cell Cultures (ECACC, Salisbury, U.K., 86012804 and 86012803). The LoVo cell line was purchased from the American Type Culture Collection (CCL-229, ATCC, Manassas, VA), and LoVo/DX by courtesy of Prof. E. Borowski (Technical University of Gdańsk, Gdańsk, Poland). The BALB/3T3 cell line was purchased from the American Type Culture Collection (CCL-163, ATCC, Manassas, VA). All of the cell lines are maintained in the Institute of Immunology and Experimental Therapy (IIET), Wroclaw, Poland.
(§2) A549 cells were cultured in a mixture of OptiMEM and Roswell Park Memorial Institute (RPMI) 1640 (1:1) medium (IIET, Wroclaw, Poland), supplemented with 10% fetal bovine serum HyClone (GE Healthcare) and 2 mM L-glutamine (Sigma-Aldrich, Germany). MCF7 cells were cultured in a mixture of Eagle’s medium (IIET, Wroclaw, Poland), supplemented with 10% fetal bovine serum, 2 mM L-glutamine, and insulin (Sigma-Aldrich, Germany). LoVo and LoVo/DX cells were cultured in F12K medium (Corning), supplemented with 10% fetal bovine serum HyClone (GE Healthcare) and 0.1 μg/mL doxorubicin (Accord) for LoVo/DX. BALB/3T3 fibroblasts were cultured in Dulbecco’s medium (Gibco), supplemented with 10% fetal bovine serum (GE Healthcare) and 2 mM L-glutamine (Sigma-Aldrich, Germany). All culture media contained antibiotics: 100 U/mL penicillin (Polfa-Tarchomin, Poland) and 0.1 mg/mL streptomycin (Sigma-Aldrich, Germany). All cell lines were cultured during entire experiment in humid atmosphere at 37 °C and 5% CO2.
(§3) All cell lines were exposed to each tested agent at different concentrations in the range 100–0.00001 μg/mL for 72 h. The cells were also exposed to the reference drug cisplatin (Teva Pharmaceuticals, Poland) and doxorubicin (Accord Healthcare Limited, U.K.). Additionally, all cell lines were exposed to dimethyl sulfoxide (DMSO) (solvent used for tested compounds) (POCh, Poland) at concentrations corresponding to those present in tested agents dilutions. After 72 h, sulforhodamine B (SRB) assay was performed.[57]
(§4) After 72 h of incubation with the tested compounds, the cells were fixed in situ by gently adding cold 50% trichloroacetic acid (TCA) (POCh, Poland) and were incubated at room temperature for 1 h. Then, the wells were washed four times with water and air-dried. Next, 0.1% solution of sulforhodamine B (Sigma-Aldrich, Germany) in 1% acetic acid (POCh, Poland) was added to each well and the plates were incubated at room temperature for 0.5 h. After incubation time, unbound dye was removed by washing plates four times with 1% acetic acid, whereas stain bound to cells was solubilized with 10 mM Tris base (Sigma-Aldrich, Germany). Absorbance of each solution was read at Synergy H4 Hybrid Multi-Mode Microplate Reader (BioTek Instruments) at the 540 nm wavelength.
(§5) IC50 values were calculated in Excel sheet using formulas adapted by Mateusz Psurski fromCheburator 0.4, Dmitry Nevozhay software (version 1.2.0 software by Dmitry Nevozhay, 2004–2014, http://www.cheburator.nevozhay.com, freely available) for each experiment.[58] Compounds at each concentration were tested in triplicate in a single experiment, and each experiment was repeated at least three times independently.

MCF-7 = experiment: cells; type: cell-based, human; details: for IC50: Homo sapiens, MCF7, 72 h, read-out: MCF-7 IC50 (nM); for MCF-7 SI: selectivity index = IC50 BALB/3T3 / IC50 MCF-7
Text: as §1, §2, §3, §4, §5

LoVo/DX = experiment: cells; type: cell-based, human; details: for LoVo/DX RI: resistance index = IC50 LoVo/DX / IC50 LoVo; for LoVo/DX SI: selectivity index = IC50 BALB/3T3 / IC50 LoVo/DX
Text: as §1, §2, §3, §4, §5

LoVo = experiment: cells; type: cell-based, human; details: for IC50: Homo sapiens, LoVo, 72 h, read-out: LoVo IC50 (nM); for LoVo SI: selectivity index = IC50 BALB/3T3 / IC50 LoVo
Text: as §1, §2, §3, §4, §5

A549 = experiment: cells; type: cell-based, human; details: for IC50: Homo sapiens, A549, 72 h, read-out: A549 IC50 (nM), 72 h exposure, SRB, mean ± SD; for A549 SI: selectivity index = IC50 BALB/3T3 / IC50 A549
Text: as §1, §2, §3, §4, §5

BALB/3T3 = experiment: In vitro antiproliferative activity, SRB assay, normal fibroblasts BALB/3T3; type: cell-based; details: Mus musculus, BALB/3T3, normal murine embryonic fibroblasts, 72 h, mean ± SD
Text: as §1, §2, §3, §4, §5

[2] = Homo sapiens, LoVo/DX, 72 h, read-out: LoVo/DX IC50 (nM), 72 h exposure, SRB, mean ± SD
[3] = read-out: LoVo/DX IC50, 72 h exposure, SRB, mean ± SD

SMILES | IC50 [1] | IC50 (MCF-7) | MCF-7 SI (MCF-7) | IC50 (LoVo/DX; [2]) | IC50 (LoVo/DX; [3]) | LoVo/DX RI (LoVo/DX) | LoVo/DX SI (LoVo/DX) | IC50 (LoVo) | LoVo SI (LoVo) | IC50 (A549) | A549 SI (A549) | IC50 (BALB/3T3)
CCCCc1cn([C@H]2CCc3cc(OC)c(OC)c(OC)c3-c3ccc(NC)c(=O)cc32)nn1 [Compound 7] | 3.1 to 6.4 nM | 5.4 ± 3.7 nM | 1.8 | < 30 nM | 23 ± 11 nM | 7.4 | 0.4 | 3.1 ± 1.3 nM | 3.2 | 6.4 ± 3.9 nM | 1.5 | 9.9 ± 3.7 nM
CCOC(=O)c1cn([C@H]2CCc3cc(OC)c(OC)c(OC)c3-c3ccc(NC)c(=O)cc32)nn1 [Compound 19] | 10 to 25 nM | 11 ± 3.7 nM | – | 220 ± 23 nM | – | 17 | 0.1 | 13 ± 3.5 nM | 1.8 | 17 ± 0.8 nM | 1.4 | 24 ± 11 nM
CCOC(=O)c1nnn([C@H]2CCc3cc(OC)c(OC)c(OC)c3-c3ccc(NC)c(=O)cc32)c1C(=O)OCC [Compound 22] | 70 to 100 nM | 93 ± 43 nM | 1.2 | 580 ± 120 nM | – | 6.0 | 0.2 | 97 ± 24 nM | 1.1 | 72 ± 27 nM | 1.5 | –
CNc1ccc2c(cc1=O)[C@@H](n1cc(C(=O)O)nn1)CCc1cc(OC)c(OC)c(OC)c1-2 [Compound 20] | – | 1200 ± 390 nM | 1.8 | 3400 ± 890 nM | – | 2.8 | 0.6 | 1200 ± 350 nM | 1.8 | 1300 ± 330 nM | 1.6 | 2100 ± 750 nM
CCCCCCCCCCCCCCCC(=O)NCc1cn([C@H]2CCc3cc(OC)c(OC)c(OC)c3-c3ccc(NC)c(=O)cc32)nn1 [Compound 30] | – | 9.3 ± 2.4 nM | 31.2 | 7300 ± 1100 nM | – | 24 | <0.1 | 300 ± 94 nM | 1.0 | 16 ± 7.3 nM | 18.1 | 290 ± 49 nM
CNc1ccc2c(cc1=O)[C@@H](n1cc(CNC(=O)CCNC(=O)OC(C)(C)C)nn1)CCc1cc(OC)c(OC)c(OC)c1-2 [Compound 34] | – | 10 ± 2.1 nM | 27.0 | 17000 ± 1600 nM | – | 510 | <0.1 | 33 ± 10 nM | 8.2 | 26 ± 11 nM | 10.4 | 270 ± 67 nM
CCCc1cn([C@H]2CCc3cc(OC)c(OC)c(OC)c3-c3ccc(NC)c(=O)cc32)nn1 [Compound 6] | – | 11 ± 1.2 nM | 2.2 | 85 ± 21 nM | – | 6.5 | 0.3 | 13 ± 1.9 nM | 1.8 | 15 ± 3.7 nM | 1.6 | 24 ± 9.3 nM
CNc1ccc2c(cc1=O)[C@@H](n1cc(-c3ccccc3)nn1)CCc1cc(OC)c(OC)c(OC)c1-2 [Compound 14] | – | 10 ± 1.8 nM | 2.0 | < 30 nM | 27 ± 7.6 nM | 2.7 | 0.7 | 10 ± 0.8 nM | 2.0 | 13 ± 2.6 nM | 1.5 | 20 ± 7.6 nM
CNc1ccc2c(cc1=O)[C@@H](n1cc(CNC(=O)c3ccncc3)nn1)CCc1cc(OC)c(OC)c(OC)c1-2 [Compound 36] | – | 12 ± 1.4 nM | 6.3 and 6.2 | 9100 ± 790 nM | – | 700 | <0.1 | 13 ± 3.4 nM | 5.7 | 22 ± 7.4 nM | 3.4 | 74 ± 22 nM
CNc1ccc2c(cc1=O)[C@@H](N)CCc1cc(OC)c(OC)c(OC)c1-2 [Compound 3, N-deacetyl-10-methylamino-10-demethoxycolchicine] | – | 8.1 ± 1.3 nM | 2.0 | 55 ± 13 nM | – | 6.2 | 0.3 | 8.9 ± 1.4 nM | 1.8 | 12 ± 2.3 nM | 1.3 | 16 ± 2.1 nM
CNc1ccc2c(cc1=O)[C@@H](NC(C)=O)CCc1cc(OC)c(OC)c(OC)c1-2 [Compound 2, 10-N-methylaminocolchicine] | – | 3.5 ± 0.7 nM | 1.7 | 230 ± 17 nM | – | 43 | <0.1 | 5.4 ± 0.7 nM | 1.1 | 4.4 ± 0.6 nM | 1.4 | 6 ± 2.3 nM
CNc1ccc2c(cc1=O)[C@@H](n1cc(CNC(=O)OC)nn1)CCc1cc(OC)c(OC)c(OC)c1-2 [Compound 37] | – | 4.7 ± 0.5 nM | 3.0 | 1500 ± 240 nM | – | 180 | <0.1 | 8.5 ± 2.3 nM | 1.6 | 7.2 ± 0.7 nM | 1.9 | 14 ± 2.4 nM
CNc1ccc2c(cc1=O)[C@@H](n1cc(CCl)nn1)CCc1cc(OC)c(OC)c(OC)c1-2 [Compound 10] | – | 8.6 ± 3.2 nM | 1.5 | 95 ± 24 nM | – | 7.9 | 0.1 | 12 ± 2.4 nM | 1.1 | 13 ± 3.3 nM | 1.0 | 13 ± 3 nM
CNc1ccc2c(cc1=O)[C@@H](n1cc(CO)nn1)CCc1cc(OC)c(OC)c(OC)c1-2 [Compound 9] | – | 6.8 ± 1 nM | 2.1 | 1500 ± 210 nM | – | 140 | <0.1 | 11 ± 5.6 nM | 1.3 | 12 ± 2.1 nM | 1.2 | 14 ± 2.1 nM
CNc1ccc2c(cc1=O)[C@@H](n1cc(C(C)(C)O)nn1)CCc1cc(OC)c(OC)c(OC)c1-2 [Compound 12] | – | 13 ± 3.4 nM | 3.8 | 2400 ± 550 nM | – | 130 | <0.1 | 19 ± 3.9 nM | 2.6 | 37 ± 4.2 nM | 1.4 | 50 ± 4.5 nM
CNc1ccc2c(cc1=O)[C@@H](n1cc(CCO)nn1)CCc1cc(OC)c(OC)c(OC)c1-2 [Compound 11] | – | 13 ± 1.6 nM | 1.4 | 1700 ± 290 nM | – | 120 | <0.1 | 14 ± 6.5 nM | 1.3 | 14 ± 2 nM | 1.3 | 18 ± 7.1 nM
CCCCCCCCCCCCCCCC(=O)OCc1cn([C@H]2CCc3cc(OC)c(OC)c(OC)c3-c3ccc(NC)c(=O)cc32)nn1 [Compound 24] | – | 11 ± 0.7 nM | 4.9 | 3300 ± 280 nM | – | 170 | <0.1 | 19 ± 7 nM | 2.8 | 16 ± 5.2 nM | 3.4 | 54 ± 20 nM
